# Laboratory results taken from patent publication US6949558B2, “Enhancement of taxane-based chemotherapy by a CDK1 antagonist” (Yale University, priority 2001, dated 2005).
# Numbered stars: 1 amine (or outer) side, 2 acyl side, 3 side chain; on linkers, the order of the positions; unused ones are H or OH. Bridge positions count the residues as written; N and C are the ends. Square brackets hold non-standard residues; d marks the D form. Peptide text beside a SMILES is read from it. I, II: the chains in the order shown. * marks the point of attachment. Actinocin(9to1) = Cc1c2oc3c(C)ccc(C(=O)[*:1])c3nc-2c(C(=O)[*:2])c(N)c1=O; NMeV = CN[C@H](C(=O)O)C(C)C; Cbz = O=C(OCc1ccccc1)*; Sar = CNCC(=O)O; CH2F = FC*
# Experiments:
# Format in all cases: cell-based, human
# [1] = tested on: MCF-7 cells; test: Apoptosis by DNA content analysis and flow cytometry in MCF-7 cells; conditions: taxol 2 μM, adriamycin 100 nM, cis-platin 3 μM (Example 7)
# Protocol: Cervical carcinoma HeLa (functionally inactivated p53) cells or breast carcinoma MCF-7 (wild type p53) cells were plated at 50-60% confluency in C-6 wells. […]
# After 4, 8, 16, and 32 hours of incubation, without removing taxol from the wells, purvalanol A was added at three increasing concentrations, 1, 10 and 20 uM (FIG. 1). A control was performed with addition of purvalanol A at the 0-h time point.
# The cell populations were harvested at increasing time intervals from the 0-h time point or corresponding to the addition of purvalanol A. Apoptosis was analyzed by DNA content analysis and flow cytometry (DAPI staining).
# [2] = tested on: survivin expression in MCF-7 cells; test: Survivin expression by Western blotting in MCF-7 cells; conditions: for effect on the increase in survivin expression mediated by adriamycin, taxol or 50 J/m^2 UVB: preincubation with cycloheximide 2 mg/ml or actinomycin D 1 μg/ml
# Protocol: (§1) Cell Cultures, Proteins and Antibodies: Breast carcinoma MCF-7 and cervical carcinoma HeLa cells (American Type Culture Collection, Manassas, Va.) were maintained in culture according to the manufacturer's specifications. For treatment with genotoxic agents, HeLa or MCF-7 cells were incubated with vehicle (DMSO) or taxol (2 μM, Sigma Chemical Co., St. Louis, Mo.), adriamycin (100 nM, Sigma), cis-platin (3 μM, Sigma) or subjected to ultraviolet B (UVB) irradiation at 50 or 300 J/m^2. In some experiments, HeLa or MCF-7 treated with taxol, adriamycin or UVB as described above were incubated with inhibitors of transcription (actinomycin D, 1 μg/ml) or translation (cycloheximide, 2 mg/ml) before determination of protein expression by Western blotting. […] A replication-deficient adenovirus encoding wild type survivin (pAd-Survivin) or control encoding Green Fluorescence Protein (pAd-GFP) was generated using the pAd-Easy system as described previously (M. Mesri et al. (2001) J. Clin. Invest. 108: 981-90), and propagated in HEK293 cells with purification by CsCl banding. […] Antibodies to p34^cdc2 or bcl-2 were obtained from Pharmingen (San Diego, Calif.) and R&D, respectively. An antibody to β-actin was from Sigma and antibodies to MPM-2 mitotic phosphoproteins was from Upstate Biotechnology (Lake Placid, N.Y.).
# (§2) In some experiments, total RNA was extracted from MCF-7 cells at various time intervals after adriamycin treatment, and hybridized with 32 P-labeled survivin cDNA as described previously. Radioactive bands were detected by autoradiography. […] In other experiments, samples were transferred to nylon membranes and analyzed by Western blotting with antibodies to p34^cdc2 (1 μg/ml), survivin (2 μg/ml), or survivinT34* (5 μg/ml).
# [3] = tested on: HeLa cells; test: Apoptosis by DNA content analysis and flow cytometry in HeLa cells
# [4] = tested on: survivin expression in HeLa cells; test: Survivin expression by Western blotting in HeLa cells
# Protocol: as §1, §2
# In other experiments, HeLa cells were treated with taxol (0.2 μM) for 16 h followed by the DNA damaging agent adriamycin (100 nM, Sigma) or the nucleoside analog 5-Fluorouracil (500 μM, Sigma) for 8-32 h at 37° C. […] In some experiments, HeLa cells were transfected by lipofectamine with a minimal survivin promoter construct upstream of a luciferase reporter gene (pLuc-cyc1.2), as described (F. Li et al. (1998) Nature 396: 580-584). Cells were treated with taxol (2 μM) or UVB (50 J/m2), and analyzed for changes in luciferase activity at increasing time intervals (12-36 h) in a luminometer. Luciferase values were normalized to β-galactosidase expression. […] The immune complexes were separated by SDS gel electrophoresis and analyzed with antibodies to survivin or a-survivinT34* by Western blotting.
# [5] = tested on: p34^cdc2 kinase activity (MPM-2 epitope) in HeLa cells; test: MPM-2 mitotic phosphoepitope expression (p34^cdc2 kinase activity) in HeLa cells; conditions: HeLa
# [6] = tested on: p34^cdc2 kinase activity (MPM-2 epitope) in MCF-7 cells; test: MPM-2 mitotic phosphoepitope expression (p34^cdc2 kinase activity) in MCF-7 cells; conditions: vincristine (FIG. 7)
# Protocol: MPM-2 Mitotic Phosphoepitope Expression: For detection of mitotic phosphoproteins (D. D. Vandre et al. (1989) J. Cell Sci. 94: 245-58), MCF-7 cells (1-2×10^5 cells/60 mm dish) were treated with taxol (2 μM), adriamycin (100 nM), 50 or 300 J/m^2 UVB irradiation and cultured for 0, 8, 16, 24 or 36 h at 37° C. Cells were fixed in 70% ethanol, labeled with MPM-2 antibody (6 μg/ml) followed by addition of goat anti-mouse FITC (Boehringer Mannheim) for 1 h at 22° C. in the presence of 5 μg/ml propidium iodide (PI) containing 50 μg/ml RNase A. Samples were analyzed on a FACScan (Becton Dickinson, Mountain View, Calif.), using CellQuest software.
# MPM-2 Mitotic Phosphoepitope Expression: For detection of mitotic phosphoproteins (D. D. Vandre et al. (1989) J. Cell Sci. 94: 245-258), MCF-7 cells (1-2×10^5 cells/60 mm dish) were treated with taxol (0.2 μM), or vincristine (100 nM) for increasing time intervals (8-36 h) at 37° C. Cells were fixed in 70% ethanol, labeled with MPM-2 antibody (6 μg/ml; Upstate Biotechnology, Lake Placid, N.Y.) followed by addition of goat anti-mouse FITC (Boehringer Mannheim) for 1 h at 22° C. in the presence of 5 μg/ml propidium iodide containing 50 μg/ml RNAse A. Samples were analyzed on a FACScan (Becton Dickinson, Mountain View, Calif.), using CellQuest software. Data are expressed as %MPM-2 positive cells in the entire population.
# [7] = genistein 25 μM or TNF a 5 ng/ml, 48 h
compound,measurement,setting,value
N.N.[Cl][Pt][Cl] [cis-platin],apoptosis,[1],negligible apoptosis
same,cell cycle arrest,[1],G2/M arrest
same,effect on survivin levels,[2]; cis-platin 3 μM,did not affect survivin levels
same,"increased expression of survivin, compared with taxol",[2]; cisplatin 3 μM,less effective
"O=c1[nH]cc(F)c(=O)[nH]1 [5-FU, 5-Fluorouracil]",enhancement of apoptosis vs single agent treatment,[3]; taxol 0.2 μM 16 h then adriamycin 100 nM or 5-Fluorouracil 500 μM,did not result in enhanced apoptosis
TNF a,survivin expression,[4]; [7],did not affect survivin expression
"COC(=O)C[C@H](NC(=O)[C@H](C)NC(=O)[C@@H](NC(=O)OCc1ccccc1)C(C)C)C(=O)CF [Z-VAD-fink, Z-VAD-fmk] (Cbz-Val-Ala-Asp(OMe)-CH2F)",effect on flavopiridol-induced apoptosis,[3]; preincubation with caspase inhibitor,suppressed flavopiridol-induced apoptosis
C[C@@H]1C[C@@H]([C@H](O)CC2CC(=O)NC(=O)C2)C(=O)[C@@H](C)C1 [cycloheximide],"effect on the increase in survivin expression mediated by adriamycin, taxol or 50 J/m^2 UVB",[2],significantly inhibited the increase in survivin expression
"Cc1c2oc3c(C)ccc(C(=O)N[C@@H]4C(=O)N[C@H](C(C)C)C(=O)N5CCC[C@H]5C(=O)N(C)CC(=O)N(C)[C@@H](C(C)C)C(=O)O[C@@H]4C)c3nc-2c(C(=O)N[C@@H]2C(=O)N[C@H](C(C)C)C(=O)N3CCC[C@H]3C(=O)N(C)CC(=O)N(C)[C@@H](C(C)C)C(=O)O[C@@H]2C)c(N)c1=O [actinomycin D] (I: T[dV]P[Sar][NMeV] / II: T[dV]P[Sar][NMeV]; ester I:1-I:C, II:1-II:C; linker I:N-II:N via Actinocin(9to1))","effect on the increase in survivin expression mediated by adriamycin, taxol or 50 J/m^2 UVB",[2],significantly inhibited the increase in survivin expression
O=c1c(-c2ccc(O)cc2)coc2cc(O)cc(O)c12 [genistein],survivin expression,[4]; [7],did not affect survivin expression
O=C1Cc2c([nH]c3ccc([N+](=O)[O-])cc23)-c2ccccc2N1 [alsterpaullone],MPM-2 mitotic phosphoepitope expression,"[5]; taxol 0.2 μM 16 h then Cdk inhibitor for 16 h (Purvalanol A 10 μM, alsterpaullone 20 μM, flavopiridol 250 nM, olomoucine 400 μM)",partially inhibited MPM-2 expression
same,MPM-2 mitotic phosphoepitope expression,[5]; taxol 0.2 μM 16 h then Cdk inhibitor for 32 h,suppressed mitotic phosphoprotein expression
CC[C@]1(O)C[C@H]2CN(CCc3c([nH]c4ccccc34)[C@@](C(=O)OC)(c3cc4c(cc3OC)N(C=O)[C@H]3[C@@](O)(C(=O)OC)[C@H](OC(C)=O)[C@]5(CC)C=CCN6CC[C@]43[C@@H]65)C2)C1 [vincristine],survivin expression,[4]; vincristine 100 nM,increased survivin expression
same,cell cycle arrest,[3]; vincristine 100 nM,sustained mitotic (prometaphase) arrest
same,p34^cdc2 kinase activity,[5]; vincristine 100 nM,elevated p34^cdc2 kinase activity
same,cdc2 kinase activity,[6],induces cdc2 kinase activity
